Data: US20060069132A1, “Azolecarboxamide herbicides” (priority 2004, published 2006)

Legend:
Experiment in all cases: Test C pre-/postemergence herbicide test
bermudagrass = assay type: in vivo, Cynodon dactylon
Text: (§1) Seeds of plant species selected from bermudagrass (Cynodon dactylon (L.) Pers.), Surinam grass (Urochloa decumbens (Staph) R. D. Webster, previously named Brachiaria decumbens Stapf), cocklebur (Xanthium strumarium L.), corn (Zea mays L.), large crabgrass (Digitaria sanguinalis (L.) Scop.), woolly cupgrass (Eriochloa villosa (Thunb.) Kunth), giant foxtail (Setaria faberi Herrm.), goosegrass (Eleusine indica (L.) Gaertn.), johnsongrass (Sorghum halepense (L.) Pers.), kochia (Kochia scoparia (L.) Schrad.), lambsquarters (Chenopodium album L.), morningglory (Ipomoea coccinea L.), eastern black nightshade (Solanum ptycanthum Dunal), yellow nutsedge (Cyperus esculentus L.), pigweed (Amaranthus retroflexus L.), common ragweed (Ambrosia elatior L.), soybean (Glycine max (L.) Merr.), common (oilseed) sunflower (Helianthus annuus L.) and velvetleaf (Abutilon theophrasti Medik.) were planted and treated preemergence with test chemicals formulated in a non-phytotoxic solvent mixture which included a surfactant.
(§2) At the same time, plants selected from these crop and weed species and also winter barley (Hordeum vulgare L.), blackgrass (Alopecurus myosuroides Huds.), canarygrass (Phalaris minor Retz.), chickweed (Stellaria media (L.) Vill.), downy bromegrass (Bromus tectorum L.), green foxtail (Setaria viridis (L.) Beauv.), Italian ryegrass (Lolium multiflorum Lam.), wheat (Triticum aestivum L.), wild oat (Avenafatua L.) and windgrass (Apera spica-venti (L.) Beauv.) were treated with postemergence applications of some of the test chemicals formulated in the same manner. Plants ranged in height from 2 to 18 cm (1- to 4-leaf stage) for postemergence treatments. Plant species in the flooded paddy test consisted of rice (Oryza sativa), smallflower umbrella sedge (Cyperus difformis L.), ducksalad (Heteranthera limosa (Sw.) Willd.) and barnyardgrass (Echinochloa crus-galli (L.) Beauv.) grown to the 2-leaf stage for testing. Treated plants and controls were maintained in a greenhouse for 12 to 14 days, after which time all species were compared to controls and visually evaluated. Plant response ratings, summarized in Table C, are based on a scale of 0 to 100 where 0 is no effect and 100 is complete control. A dash (-) response means no test result.

morningglory = assay type: in vivo, Ipomoea coccinea; design: key to Plant response rating, Morningglory: 0 = no effect, 100 = complete control; conditions: for Morningglory plant response rating: 500 g ai/ha
Text: as §1, §2

lambsquarters = assay type: in vivo, Chenopodium album; conditions: for Lambsquarters plant response rating: 500 g ai/ha
Text: as §1, §2

large crabgrass = assay type: in vivo, Digitaria sanguinalis; conditions: for Crabgrass, Large plant response rating: 500 g ai/ha
Text: as §1, §2

common ragweed = assay type: in vivo, Ambrosia elatior; design: key to Plant response rating, Ragweed: 0 = no effect, 100 = complete control; conditions: for Ragweed plant response rating: 500 g ai/ha
Text: as §1, §2

giant foxtail = assay type: in vivo, Setaria faberi; conditions: for Foxtail, Giant plant response rating: 500 g ai/ha
Text: as §1, §2

velvetleaf = assay type: in vivo, Abutilon theophrasti; conditions: for Velvetleaf plant response rating: 500 g ai/ha
Text: as §1, §2

[1] = 125 g ai/ha, scale 0 (no effect) to 100 (complete control), visual, 12 to 14 days, preemergence
[2] = 250 g ai/ha, scale 0 to 100 (0 no effect, 100 complete control), visual, 12 to 14 days, preemergence
[3] = Postemergence, 125 g ai/ha, scale 0 to 100, 0 no effect, 100 complete control
[4] = postemergence, 62 g ai/ha, scale 0 to 100
[5] = Postemergence, 250 g ai/ha, scale 0 to 100, 0 no effect, 100 complete control
[6] = Preemergence, scale 0 to 100, 0 no effect, 100 complete control
[7] = 250 g ai/ha, scale 0-100, preemergence
[8] = postemergence, 125 g ai/ha, scale 0 to 100
[9] = 62 g ai/ha, preemergence, scale 0 to 100

C#CCn1nc(C(C)(C)C)cc1C(=O)Nc1cccc(C(=O)NCC)c1 [Compound 50]
Plant response rating (0 = no effect, 100 = complete control), Bermudagrass (bermudagrass; 62 g ai/ha, preemergence): 0 | Plant response rating, Bermudagrass (bermudagrass; [1]): 0 | Plant response rating, Bermudagrass (bermudagrass; [2]): 0 | Bermudagrass plant response rating (bermudagrass; Postemergence, 500 g ai/ha, scale 0 to 100): 40 | Plant response rating, Bermudagrass (bermudagrass; [3]): 30 | Bermudagrass plant response rating (bermudagrass; Postemergence, 250 g ai/ha, scale 0 to 100): 30 | Bermudagrass plant response rating (bermudagrass; Preemergence, 500 g ai/ha, scale 0 to 100, 0 no effect, 100 complete control): 10 | Plant response rating, Bermudagrass (bermudagrass; [4]): 0 | Plant response rating (0 = no effect, 100 = complete control), Morningglory (morningglory; 62 g ai/ha, preemergence): 0 | Plant response rating, Morningglory (morningglory; [1]): 0 | Plant response rating, Morningglory (morningglory; [2]): 0 | Morningglory plant response rating (morningglory; Postemergence, scale 0 to 100): 10 | Plant response rating, Morningglory (morningglory; [5]): 0 | Morningglory plant response rating (morningglory; [6]): 0 | Plant response rating, Morningglory (morningglory; [4]): 0 | Plant response rating (0 = no effect, 100 = complete control), Lambsquarters (lambsquarters; 62 g ai/ha, preemergence): 85 | Plant response rating, Lambsquarters (lambsquarters; [1]): 85 | Plant response rating, Lambsquarters (lambsquarters; [2]): 100 | Lambsquarters plant response rating (lambsquarters; Postemergence, scale 0 to 100): 0 | Plant response rating, Lambsquarters (lambsquarters; [5]): 0 | Lambsquarters plant response rating (lambsquarters; [6]): 100 | Plant response rating, Lambsquarters (lambsquarters; [4]): 0 | Plant response rating (0 = no effect, 100 = complete control), Crabgrass, Large (large crabgrass; 62 g ai/ha, preemergence): 0 | Plant response rating, Crabgrass, Large (large crabgrass; [1]): 0 | Plant response rating, Crabgrass, Large (large crabgrass; [2]): 20 | Crabgrass, Large plant response rating (large crabgrass; Postemergence, scale 0 to 100): 0 | Plant response rating, Crabgrass, Large (large crabgrass; [3]): 0 | Plant response rating, Crabgrass, Large (large crabgrass; [5]): 0 | Crabgrass, Large plant response rating (large crabgrass; [6]): 80 | Plant response rating, Crabgrass, Large (large crabgrass; [4]): 0 | Plant response rating (0 = no effect, 100 = complete control), Ragweed (common ragweed; 62 g ai/ha, preemergence): 10 | Plant response rating, Ragweed (common ragweed; [1]): 40 | Plant response rating, Ragweed (common ragweed; [2]): 80 | Ragweed plant response rating (common ragweed; Postemergence, scale 0 to 100): 85 | Plant response rating, Ragweed (common ragweed; [5]): 85 | Ragweed plant response rating (common ragweed; [6]): 100 | Plant response rating, Ragweed (common ragweed; [4]): 80 | Plant response rating (0 = no effect, 100 = complete control), Foxtail, Giant (giant foxtail; 62 g ai/ha, preemergence): 0 | Plant response rating, Foxtail, Giant (giant foxtail; [1]): 0 | Plant response rating, Foxtail, Giant (giant foxtail; [2]): 0 | Foxtail, Giant plant response rating (giant foxtail; Postemergence, scale 0 to 100): 0 | Plant response rating, Foxtail, Giant (giant foxtail; [3]): 0 | Plant response rating, Foxtail, Giant (giant foxtail; [5]): 0 | Foxtail, Giant plant response rating (giant foxtail; [6]): 10 | Plant response rating, Foxtail, Giant (giant foxtail; [4]): 0 | Plant response rating (0 = no effect, 100 = complete control), Velvetleaf (velvetleaf; 62 g ai/ha, preemergence): 0 | Plant response rating, Velvetleaf (velvetleaf; [1]): 5 | Plant response rating, Velvetleaf (velvetleaf; [2]): 5 | Velvetleaf plant response rating (velvetleaf; Postemergence, scale 0 to 100): 100 | Plant response rating, Velvetleaf (velvetleaf; [5]): 100 | Velvetleaf plant response rating (velvetleaf; [6]): 5 | Plant response rating, Velvetleaf (velvetleaf; [4]): 100

CCOC(=O)c1cccc(NC(=O)c2nn(C(C)(C)CC)nc2CC)c1 [Compound 375]
Plant response rating, Bermudagrass (bermudagrass; 31 g ai/ha, scale 0 to 100, 0 no effect, 100 complete control, last section of Table C (species set of preemergence test)): 95 | Plant response rating, Bermudagrass (bermudagrass; 62 g ai/ha, preemergence, scale 0 to 100, 0 no effect, 100 complete control): 100 | Plant response rating (0 = no effect, 100 = complete control), Bermudagrass (bermudagrass; 125 g ai/ha, preemergence): 100 | Plant response rating, Bermudagrass (bermudagrass; [7]): 100 | Plant response rating, Bermudagrass (bermudagrass; [5]): 60 | Plant response rating, Bermudagrass (bermudagrass; [8]): 30 | Plant response rating, Bermudagrass (bermudagrass; postemergence, 31 g ai/ha, scale 0 to 100): 5 | Plant response rating, Bermudagrass (bermudagrass; [4]): 20 | Plant response rating, Morningglory (morningglory; [9]): 0 | Plant response rating (0 = no effect, 100 = complete control), Morningglory (morningglory; 125 g ai/ha, preemergence): 0 | Plant response rating, Morningglory (morningglory; [7]): 5 | Plant response rating, Morningglory (morningglory; [4]): 10 | Plant response rating, Lambsquarters (lambsquarters; [9]): 5 | Plant response rating (0 = no effect, 100 = complete control), Lambsquarters (lambsquarters; 125 g ai/ha, preemergence): 10 | Plant response rating, Lambsquarters (lambsquarters; [7]): 90 | Plant response rating, Lambsquarters (lambsquarters; [8]): 40 | Plant response rating, Lambsquarters (lambsquarters; [4]): 10 | Plant response rating, Crabgrass, Large (large crabgrass; [9]): 60 | Plant response rating (0 = no effect, 100 = complete control), Crabgrass, Large (large crabgrass; 125 g ai/ha, preemergence): 70 | Plant response rating, Crabgrass, Large (large crabgrass; [7]): 100 | Plant response rating, Crabgrass, Large (large crabgrass; [5]): 20 | Plant response rating, Crabgrass, Large (large crabgrass; [8]): 20 | Plant response rating, Crabgrass, Large (large crabgrass; [4]): 5 | Plant response rating, Ragweed (common ragweed; [9]): 0 | Plant response rating (0 = no effect, 100 = complete control), Ragweed (common ragweed; 125 g ai/ha, preemergence): 5 | Plant response rating, Ragweed (common ragweed; [7]): 10 | Plant response rating, Ragweed (common ragweed; [8]): 10 | Plant response rating, Ragweed (common ragweed; [4]): 5 | Plant response rating, Foxtail, Giant (giant foxtail; [9]): 70 | Plant response rating (0 = no effect, 100 = complete control), Foxtail, Giant (giant foxtail; 125 g ai/ha, preemergence): 80 | Plant response rating, Foxtail, Giant (giant foxtail; [5]): 60 | Plant response rating, Foxtail, Giant (giant foxtail; [8]): 45 | Plant response rating, Foxtail, Giant (giant foxtail; [4]): 40 | Plant response rating, Velvetleaf (velvetleaf; [9]): 0 | Plant response rating (0 = no effect, 100 = complete control), Velvetleaf (velvetleaf; 125 g ai/ha, preemergence): 30 | Plant response rating, Velvetleaf (velvetleaf; [7]): 80 | Plant response rating, Velvetleaf (velvetleaf; [8]): 85 | Plant response rating, Velvetleaf (velvetleaf; [4]): 60
